What was measured:
17HSD type 1 = target: T1, 17HSD type 1 (Homo sapiens, UniProt P14061); experiment: 17HSD type 1 inhibition in MCF-7 cells stably expressing 17HSD type 1 (HPLC detection of tritium labeled estrone conversion); assay type: cell-based; set-up: expressed in transfected cells; host or cells: MCF-7 cells stably expressing 17HSD type 1; details: MCF-7 cells expressing 17HSD type 1, substrate estrone 20 nM
T1 sequence (P14061 1-328): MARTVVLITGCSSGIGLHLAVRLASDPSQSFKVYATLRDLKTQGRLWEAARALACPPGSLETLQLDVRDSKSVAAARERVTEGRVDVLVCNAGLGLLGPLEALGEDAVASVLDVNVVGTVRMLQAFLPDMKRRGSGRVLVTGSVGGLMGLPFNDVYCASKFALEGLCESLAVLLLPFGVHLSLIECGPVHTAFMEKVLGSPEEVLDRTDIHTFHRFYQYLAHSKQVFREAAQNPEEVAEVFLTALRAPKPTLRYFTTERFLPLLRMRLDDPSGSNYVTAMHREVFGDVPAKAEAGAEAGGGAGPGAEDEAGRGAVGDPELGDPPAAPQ
Description: (§1) The tested compounds (about 1000 selected different compounds) were screened in respect of 17HSD enzyme activities according to the following method:
(§2) The compounds were screened in respect of 17HSD enzyme activities in vitro on two established MCF-7 cell lines, each stably expressing one 17HSD isoenzyme, either 17HSD type 1 or 17HSD type 2, but not the other one. The interconversion of substrate by each isoenzyme and the HSD-inhibiting activity of chemical compounds in these cell lines was detected by HPLC system (Miettinen et al., Int J Cancer (1996) 68, 600-604).
(§3) Varying amounts of the test compounds were incubated in the growth medium of the 17HSD expressing cells together with tritium labeled substrate (estrone for 17HSD type 1 enzyme; 20 nM). The medium samples were removed after exact incubation time and the reaction was stopped by deepfreezing. The samples were analyzed by HPLC-coupled flow scintillation analysis. The 17HSD-inhibiting activity of the test compounds was compared to known reference compound apigenin and to a negative control.

17HSD type-2 enzyme = target: T2, 17HSD type-2 enzyme (Homo sapiens, UniProt P37059); experiment: 17HSD type 2 inhibition in MCF-7 cells stably expressing 17HSD type 2 (HPLC detection); assay type: cell-based; details: MCF-7 cells expressing 17HSD type 2; concentration not given
T2 construct: expressed in transfected cells; host or cells: MCF-7 cells stably expressing 17HSD type 2
T2 sequence (P37059 1-387): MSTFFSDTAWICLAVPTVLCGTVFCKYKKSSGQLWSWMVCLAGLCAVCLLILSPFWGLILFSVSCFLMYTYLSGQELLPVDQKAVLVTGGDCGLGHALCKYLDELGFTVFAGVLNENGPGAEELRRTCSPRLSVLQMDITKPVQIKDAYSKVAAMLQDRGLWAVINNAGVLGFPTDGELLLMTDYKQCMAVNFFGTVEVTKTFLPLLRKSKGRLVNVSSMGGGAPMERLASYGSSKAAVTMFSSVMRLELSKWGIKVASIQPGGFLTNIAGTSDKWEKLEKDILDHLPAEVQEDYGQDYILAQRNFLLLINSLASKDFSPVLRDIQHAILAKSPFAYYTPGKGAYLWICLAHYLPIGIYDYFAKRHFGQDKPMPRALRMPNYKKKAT
Description: as §1, §2, §3

SMILES | inhibition of the 17HSD type 1 enzyme (17HSD type 1; concentration 1 μM) [%] | inhibition of the 17HSD type 1 enzyme (17HSD type 1; concentration 10 μM) [%] | inhibition of the 17HSD type-2 enzyme (17HSD type-2 enzyme) | inhibition at 1 µM (17HSD type 1; MCF7, concentration 1 μM) [%]
O=CC1=C(Sc2ccccc2)c2sc3nc4n(c(=O)c3c2CC1)CCCCC4 [Compound A] | 80 | 95 | did not show any inhibition effect | 
O=c1cc(-c2ccc(O)cc2)oc2cc(O)cc(O)c12 [apigenin] |  |  | 5% | 48
